Reference: patent publication US5089520A, “Method of inhibiting virus” (priority 1990, dated 1992)
Like-named read-outs stand apart in the source and are kept apart here. Values belong to the compound of their own block, whether it stands above or below them.

Legend:
HIV [1] = assay: In vitro HIV replication / cytopathic effect assay, HIV-infected T-cells scored 0 to 4+ (Example 13, Table I); type: cell-based; design: key to T-cells HIV-infected (score): 0: complete CPE; ±: most cells dead; 1+: about 1/4 of cells alive; 2+: about 1/2 of cells alive; 3+: about 3/4 of cells alive; 4+: all cells appear alive; conditions: for HIV inhibition score (inactive, scored as zero): above test protocol (Example 13), concentration not given
Experimental: (§1) After a suitable period of incubation, the cultures are scored for the presence of so-called syncytial cells (giant cells). Typical examples of such a test for the evaluation of inhibitors of HIV have been disclosed by Fung et al., Bio/Technology 5, 940-946 (1987); Tyms et al., Lancet, Oct. 31, 1987, pp. 1025-1026; Gruters et al., Nature 330, 74-77 (1987); and Walker et al., Proc Natl. Acad. Sci. USA 84, 8120-8124 (1987).
(§2) In the present case, a human leukemic T-cell line was used which is described by Karpas, Leuk. Res. 1, 35-49 (1977). These cells were seeded into microtiter wells at a concentration of 5×10^3 cells per 0.2 ml of culture medium in each well. RPMI-1640 supplemented with 10% fetal calf serum was used as the culture medium. Each of the test compounds was added to either 4 or 6 wells of the microtiter plate. Two or three of the wells were infected with about 10^3 HIV-1 particles per well and two or three other wells were similarly infected with HV-2 particles. During the following 3 weeks, with a twice weekly change of medium containing the corresponding test compounds, the infected cells were monitored for the appearance of syncytial formations (giant cells) and eventual cytopathic effect (CPE). The non-infected cells were monitored for the possible cytotoxic effect of the test compounds. Likewise, the rate of growth was estimated in relation to growth of the control cells. The cultures were scored on a scale from 0 to 4+ by microscopic examination on the following basis:
(§3) 1+=about 1/4 of cells alive
(§4) 2+=about 1/2 of cells alive
(§5) 3+=about 3/4 of cells alive
(§6) 4+=all cells appear alive

in vitro = type: cell-based, human; design: key to T-cells Control (score): 0: complete CPE; ±: most cells dead; 1+: about 1/4 of cells alive; 2+: about 1/2 of cells alive; 3+: about 3/4 of cells alive; 4+: all cells appear alive; conditions: human, leukemic t-cell line; same test protocol as Table I; read-out: toxic at (concentration)
Experimental: as §1, §2, §3, §4, §5, §6

HIV [2] = conditions: literature, cited from earlier work; for inhibition of HIV / cytopathic effect (in words): in vitro
[3] = Cytotoxic activity in non-infected T-lymphocytes (Example 14, Table II); type: cell-based; conditions: human, read-out: Cytotoxic Activity (% cell death)
Experimental: (§7) Further testing of compounds 1 to 12 for inhibition of HIV replication was carried out to confirm the results of Example 13. To discriminate between specific anti-HIV activity and cytotoxicity, the effects of these compounds on HIV infected and non-infected T-lymphocytes were assessed in parallel. Using the T-cell line and cell free suspensions of HIV prepared from infected cultures, as in Example 13, the concentration of infectious particles (TCID, tissue culture infectious dose) was estimated using an end-point titration where the number of infectious HIV particles in each preparation was determined by the highest dilution which contained infectious HIV, as detected by syncytial formation, cytotoxicity and HIV antigen synthesis after 10 days of culture with 10^4 T-45 cells. Stock solutions of all compounds were prepared by dissolving each compound at a concentration of 1 mg/ml in growth medium. These solutions were filtered and sterilised (0.22 μm). Initially, each compound was tested at concentrations of 0.1 mg/ml and 0.5 mg/ml.
(§8) The following Table II sets forth the cytotoxic activity (% cell death) and the anti-HIV activity (% cytopathic effect, CPE, reduction), for these compounds.

HIV [4] = assay: Anti-HIV activity, CPE reduction in HIV infected T-lymphocytes (Example 14, Table II); type: cell-based; conditions: Human immunodeficiency virus 1, T-lymphocyte; for activity at 100 µg/mL: dosage 0.1 mg/ml; for activity at 130 µg/mL: dosage 0.13 mg/ml
Experimental: as §7, §8

[5] = test system: human leukemic T-cell line; assay: in vitro; type: cell-based; design: key to T-cells Control (score): 0: complete CPE; ±: most cells dead; 1+: about 1/4 of cells alive; 2+: about 1/2 of cells alive; 3+: about 3/4 of cells alive; 4+: all cells appear alive; conditions: control cells, 3 weeks
Experimental: as §1, §2, §3, §4, §5, §6

α-glucosidase I = conditions: literature; cited from earlier work
HIV virons = conditions: literature; cited from earlier work
mannosidase I = conditions: literature; cited from earlier work
glycosidase = conditions: literature; cited from earlier work
α-glycosidase = conditions: literature; cited from earlier work
[6] = compound concentration 0.1 mg/ml
[7] = compound concentration 0.3 mg/ml
[8] = compound concentration 0.13 mg/ml

Compound: OC[C@@H]1[C@@H](O)[C@@H](O)CN1Cc1ccccc1 [1,4-dideoxy-1,4-benzylimino-D-ribitol, 1,4-Dideoxy-1,4-benzylimino-D-ribitol]
HIV inhibition score (inactive, scored as zero) (HIV [1]): zero

Compound: C[C@@H]1NC[C@@H](O)[C@H](O)[C@@H]1O [1,5-dideoxy-1,5-imino-L-fucitol, 1,5-Dideoxy-1,5-imino-L-fucitol]
HIV inhibition score (inactive, scored as zero) (HIV [1]): zero

Compound: Cc1cn([C@H]2C[C@H](N=[N+]=[N-])[C@@H](CO)O2)c(=O)[nH]c1=O [AZT, 3'-azido-3'-deoxythymidine, reference compound]
MCC (in vitro): 0.01 µg/mL
inhibition of HIV / cytopathic effect (in words) (HIV [2]): shown to inhibit replication of the virus in vitro

T-cells Control (score) [5, 6]: 4+
Compound: CN1[C@H](CO)[C@@H](O)[C@H](O)[C@H]1CO [Compound 1, N-Methyl derivative of dihydroxymethyldihydroxypyrrolidine]
cytotoxicity ([3]; dosage 0.1 mg/ml): 0%
activity at 100 µg/mL (HIV [4]): 25%

Compound: OC[C@@H]1NC[C@H](O)[C@H]1O [Compound 2, 1,4-Dideoxy-1,4-imino-L-arabinitol]
cytotoxicity ([3]; dosage 0.1 mg/ml): 0%
T-cells HIV-infected (score) (HIV [1]; compound concentration 0.3 mg/ml, 3 weeks, HIV-1 and HIV-2): 4+
activity at 100 µg/mL (HIV [4]): 50%
activity at 500 µg/mL (HIV [4]; dosage 0.5 mg/ml): 100%
T-cells Control (score) [5, 7]: 4+
inhibition of HIV / cytopathic effect (in words) (HIV [2]): strong HIV inhibitory activity

Compound: OC[C@@H]1NC[C@@H](O)[C@H]1O [Compound 3, 1,4-Dideoxy-1,4-imino-L-ribitol]
cytotoxicity ([3]; dosage 0.13 mg/ml): 0%
activity at 130 µg/mL (HIV [4]): 25%
T-cells Control (score) [5, 8]: 4+

Compound: OC[C@H]1NC[C@H](O)[C@@H]1O [Compound 4, 1,4-Dideoxy-1,4-imino-D-ribitol]
cytotoxicity ([3]; dosage 0.13 mg/ml): 0%
activity at 130 µg/mL (HIV [4]): 50%
T-cells Control (score) [5, 8]: 4+

T-cells Control (score) [5, 6]: 4+
Compound: CN1C[C@H](O)[C@@H](O)[C@@H]1CO [Compound 5]
cytotoxicity ([3]; dosage 0.1 mg/ml): 0%
activity at 100 µg/mL (HIV [4]): 25%

T-cells Control (score) [5, 6]: 4+
Compound: CN1C[C@H](O)[C@H](O)[C@H]1CO [Compound 6]
cytotoxicity ([3]; dosage 0.1 mg/ml): 0%
activity at 100 µg/mL (HIV [4]): 25%

T-cells Control (score) [5, 6]: 4+
Compound: OC[C@H]1[C@H](O)[C@H](O)CN1Cc1ccccc1 [Compound 7, 1,4-dideoxy-1,4-benzylimino-L-ribitol]
cytotoxicity ([3]; dosage 0.1 mg/ml): 0%
activity at 100 µg/mL (HIV [4]): 25%

T-cells Control (score) ([5]; compound concentration 0.16 mg/ml): 4+
Compound: OC[C@@H](O)[C@@H]1NC[C@@H](O)[C@H]1O [Compound 8, 1,4-Dideoxy-1,4-imino-D-talitol]
cytotoxicity ([3]; dosage 0.16 mg/ml): 0%
activity at 160 µg/mL (HIV [4]; dosage 0.16 mg/ml): 25%

T-cells Control (score) [5, 7]: 4+
Compound: CN1C[C@@H](O)[C@@H](O)[C@H](O)[C@H]1CO [Compound 9, N-Methyl derivative of deoxymannojirimycin]
cytotoxicity ([3]; dosage 0.3 mg/ml): 0%
activity at 300 µg/mL (HIV [4]; dosage 0.3 mg/ml): 25%

T-cells Control (score) [5, 6]: 4+
Compound: C[C@@H]1NC(=O)[C@@H](O)[C@H](O)[C@@H]1O [Compound 10, 1,5-dideoxy-1,5-imino-L-fuconolactam]
cytotoxicity ([3]; dosage 0.1 mg/ml): 25%
activity at 100 µg/mL (HIV [4]): 50%

T-cells Control (score) [5, 6]: 4+
Compound: C[C@H]1[C@@H](O)[C@@H](O)[C@H](O)CN1C [Compound 11, 1,5-Dideoxy-1,5-imino-[N-methyl]-L-fucitol]
cytotoxicity ([3]; dosage 0.1 mg/ml): 0%
activity at 100 µg/mL (HIV [4]): 25%

T-cells Control (score) ([5]; compound concentration 0.03 mg/ml): 4+
Compound: COC(=O)CCCCCN1C[C@@H](O)[C@H](O)[C@H](O)[C@@H]1C [Compound 12, 1,5-Dideoxy-1,5-imino-[N-ω-methyl caproate]-L-fucitol]
cytotoxicity ([3]; dosage 0.1 mg/ml): 0%
activity at 100 µg/mL (HIV [4]): 75%
activity at 250 µg/mL (HIV [4]; dosage 0.25 mg/ml): 90%

Compound: OC[C@H]1NC[C@@H](O)[C@@H]1O [D-enantiomer]
inhibition of HIV / cytopathic effect (in words) (HIV [2]): very little effect on HIV replication

Compound: O[C@@H]1[C@@H](O)[C@@H](O)CN2CC[C@H](O)[C@@H]12 [L-1,6-diepicastanospermine]
inhibition of HIV / cytopathic effect (in words) (HIV [2]): neither the epimer L-1,6-diepicastanospermine nor the stereoisomer of castanospermine, L-6-epicastanospermine, were found to be inhibitory

Compound: O[C@@H]1[C@@H](O)[C@@H](O)CN2CC[C@@H](O)[C@@H]12 [L-6-epicastanospermine]
inhibition of HIV / cytopathic effect (in words) (HIV [2]): neither the epimer L-1,6-diepicastanospermine nor the stereoisomer of castanospermine, L-6-epicastanospermine, were found to be inhibitory

Compound: OC[C@@H]1[C@@H](O)[C@H](O)[C@@H](O)CN1Cc1ccccc1 [N-benzyl derivative]
inhibition of HIV / cytopathic effect (in words) (HIV [2]): Neither the azofuranose analog of glucose nor the N-benzyl derivative were found to have an effect on CPE

Compound: CN1C[C@H](O)[C@@H](O)[C@H](O)[C@H]1CO [N-methyl derivative of deoxynojirimycin]
glucosidase I inhibitory activity (in words) (α-glucosidase I): gluosidase I inhibitory activity
inhibition of HIV / cytopathic effect (in words) (HIV [2]): having activity against HIV

Compound: O[C@H]1[C@H](O)[C@@H](O)CN2CC[C@H](O)[C@H]12 [castanospermine]
glucosidase I inhibitory activity (in words) (α-glucosidase I): α-glucosidase I inhibitor
effect on glycosylation of HIV virons and entry into target cells (in words) (HIV virons): interfere with normal glycosylation of HIV virons, thereby altering the envelope glycoprotein and preventing entry of HIV into target cells
inhibition of HIV / cytopathic effect (in words) (HIV [2]): inhibition of the cytopathic effect (CPE)
effect on HIV / virion infectivity (in words) (HIV [2]): only a modest reduction in virion infectivity

Compound: OC[C@H]1NC[C@@H](O)[C@@H](O)[C@@H]1O [deoxymannojirimycin (DMJ), 1,5-dideoxy-1,5-imino-D-mannitol]
mannosidase I inhibition (in words) (mannosidase I): mannosidase I inhibitor
effect on HIV / virion infectivity (in words) (HIV [2]): absence of effect

Compound: OC[C@H]1NC[C@H](O)[C@@H](O)[C@@H]1O [deoxynojirimycin (DNJ), deoxynojirimycin]
glycosidase inhibition (in words) (glycosidase): glycosidase inhibitor
effect on HIV / virion infectivity (in words) (HIV [2]): positive effect

Compound: OC[C@H]1NCC[C@@H](O)[C@@H]1O [fagomine]
α-glycosidase inhibitory activity (in words) (α-glycosidase): α-glycosidase inhibitory activity
inhibition of HIV / cytopathic effect (in words) (HIV [2]): no HIV inhibition was observed
